Test results: US11285142B2, “Compositions and methods for identifying and treating dystonia disorders” (DUKE UNIVERSITY, priority 2015, dated 2022)
Entries after “also recorded” stand apart in the source; their conditions may differ. Peptide text beside a SMILES is read from it. * marks the point of attachment. Cbz = O=C(OCc1ccccc1)*

Columns and labels:
[1] = tested on: WT Torsin1a localization in Flp-In T-REx 293 cells expressing EGFP-WT Torsin1a; experiment: Torsin1a localization assay in WT Torsin1a-expressing assay cell line; type: cell-based, human; conditions: WT cell line; MG132 10 μM, PBA 20 mM
Text: To develop an assay capable of detecting conditions that correct a dystonia cellular phenotype, two human cell lines were generated that stably expressed EGFP-tagged human wild-type Torsin 1A, or delta-E Torsin1a, from a single cDNA copy integrated at a defined genomic site (FIG. 1, panel 1).
To limit variation in expression levels associated with random integration or transient expression, single copies of either WT or delta-E human TOR1A cDNAs with N-terminal EGFP fusions were inserted at the FRT site in Flp-In™ T-Rex™ 293 cells (Thermo Fisher Scientific #R780-07) via flippase recombinase-mediated cassette exchange according to the manufacturer's recommended protocols. This system includes an inducible expression feature (TetON) that avoids selective pressure for potential toxic effects of chronic expression of mutant proteins (FIG. 1, panel 1). […]
This approach provides control over expression levels, avoiding the wide variation typically seen with random genomic integration or transient expression approaches. […] The mutant phenotype was measured as the percentage of cells with one or more EGFP puncta using automated high-content imaging analysis (see infra).
Development and validation of the high-content image analysis and assay performance under high-throughput screening conditions is presented in FIG. 9. […] Automated exposure times for each plate were determined by setting a target saturation of 25% in channel 1 in wells containing tetracycline-induced delta-E cells. Detected cells were gated according to nuclear area, length-to-width ratio, and perimeter-to-area ratio. […] EGFP fluorescence (Ch2: excitation 488 nm; emission 509 nm) was used for puncta detection. Automated exposure times for each plate were determined by setting a target saturation of 35% in channel 2 in wells containing induced delta-E cells. […]

[2] = tested on: delta-E Torsin1a localization in Flp-In T-REx 293 cells expressing EGFP-delta-E Torsin1a; experiment: delta-E Torsin1a mis-localization assay (high-content imaging, % cells with EGFP puncta); type: cell-based, human; conditions: delta-E cell line; for percentage of cells with punctate EGFP-Torsin1a signal: MG132 10 μM, PBA 20 mM
Description: To limit variation in expression levels associated with random integration or transient expression, single copies of either WT or delta-E human TOR1A cDNAs with N-terminal EGFP fusions were inserted at the FRT site in Flp-In™ T-Rex™ 293 cells (Thermo Fisher Scientific #R780-07) via flippase recombinase-mediated cassette exchange according to the manufacturer's recommended protocols.
The cells were maintained at 37° C./5% CO2. All experiments were performed on cells with fewer than 5 passages.
Torsin1a expression was also controlled by tetracycline induction to avoid selective pressure modifying the cellular phenotypes. […] The mutant phenotype was measured as the percentage of cells with one or more EGFP puncta using automated high-content imaging analysis (see infra).
The image analysis algorithm was developed using the Cellomics ArrayScan V CompartmentAnalysisV2 protocol. Hoechst's nuclear staining (Ch1: excitation 350 nm; emission 461 nm) was used for focusing and for cell identification by nuclear size, shape, and intensity. […] Detected cells were gated according to nuclear area, length-to-width ratio, and perimeter-to-area ratio. For the purpose of analysis, cell bodies were defined by a radius of 10 μm from the outer edge of the defined nucleus. Overlapping cells were automatically segmented according to the Cellomics ArrayScanV CompartmentAnalysisV2 object segmentation feature. EGFP fluorescence (Ch2: excitation 488 nm; emission 509 nm) was used for puncta detection. […] Torsin1a puncta were identified using the spot detection feature of the Compartmental AnalysisV2 protocol. The percentage of cells containing one or more puncta was used as the primary metric in this assay.
(§1) In order to test this model directly, the delta-E Torsin1a cell line was treated with compounds targeting the eIF2-alpha signaling pathway (FIG. 2). […] The following day, serial drug dilutions were prepared at 2× final concentration in assay media containing 10 μg/mL tetracycline and 30 μL of the drug/tetracycline mixture was added to the appropriate wells, while control wells received 30 μL of assay media alone or assay media+10 μg/mL tetracycline (final tetracycline concentration for all wells except negative controls: 5 μg/mL). Cells were then incubated at 37° C./5% CO^2 for 48 hours and fixed, permeabilized, Hoechst stained, and imaged as described above. The range of the Torsin1a localization effect was normalized to the percentage of cells with puncta in vehicle-treated delta-E cell line as the maximum and that in WT cell line as the minimum (FIG. 2, panels c-h). Cell count and EGFP-Torsin1a expression were normalized to their respective values in the vehicle-treated delta-E cell line as the maximum. All dose response data are the average of 4 independent experiments per dose. Untreated control data used for normalization are the average of 24 independent experiments.

[3] = tested on: Flp-In T-REx 293 cells expressing delta-E Torsin1a; experiment: Cytotoxicity (cell count, cellular morphology) in the Torsin1a assay cell line; type: cell-based, human; conditions: at effective concentrations
Description: as §1
Efficacy is calculated as the magnitude of the pathology correction relative to the mutant Torsin1a pathology. For example an efficacy=−100% would be equivalent to the WT TorsinA phenotype, and 0% would be equivalent to the Mutant TorsinA phenotype. CCv2 refers to the dose response Curve Class annotation, and AC refers to Active Concentration.

[4] = tested on: homozygous DYT1 (delta-E Torsin1a) knock-in mice; experiment: Perinatal survival of homozygous DYT1 knock-in mice after in utero exposure; type: in vivo, mouse
Description: The findings above support a role for the eIF2-alpha signaling pathway in normalizing in vitro cellular phenotypes related to the DYT1 genotype. Next, the effect of targeting eIF2-alpha signaling on the deleterious consequences of the DYT1 TorsinA mutation was determined in vivo. Etiological mouse models of DYT1 dystonia have not had robust dystonic phenotypes. (Tanabe, L. M., et al., (2012) PloS One 7, e32245; Camargos, S. et al., (2008) Lancet. Neurol. 7, 207-15; Seibler, P. et al. (2008) Lancet. Neurol. 7, 380-1.) Nonetheless, another deleterious genotype-dependent effect of the mutation on the animal-neonatal lethality of homozygous delGAG knock-in mice—facilitated interrogation of the impact of eIF2-alpha targeting in vivo (FIG. 4a). (Seibler, P. et al. (2008) Lancet. Neurol. 7, 380-1; Goodchild, R. E., et al, (2005) Neuron 48, 923-32.)
Pairs of heterozygous delta-E Torsin1a knock-in breeders (courtesy of Dr. W. Dauer, University of Michigan) were randomly assigned to vehicle or salubrinal treatment groups. Starting 10 days after breeding cages were established, each female mouse was given a daily subcutaneous injection of vehicle or salubrinal at approximately 6 p.m. Cages were checked for new pups three times per day: morning (˜8 a.m.), early afternoon (˜2 p.m.), and during injections (˜6 p.m.). In order to minimize stress and the possibility of litter abandonment, mice with newborn pups were not given injections. Newborn pups were identified by marking limbs with a permanent laboratory marker, and tail samples were taken for genotyping at P0. At approximately P0.5, cages were checked again, and the status of each pup was recorded. If pups were first observed at the 8 am check, the 2 pm check was considered P0.5. If pups were first observed at the 2 pm or 6 pm checks, an additional check was performed at approximately midnight, and considered P0.5. Mortality was also tracked the following day, after which time identifying marks were predominately washed off or obscured by fur. […]

CC(C)C[C@@H](C=O)NC(=O)[C@H](CC(C)C)NC(=O)[C@H](CC(C)C)NC(=O)OCc1ccccc1 [MG132] (Cbz-Leu-Leu-Leu-aldehyde)
percentage of cells with punctate EGFP-Torsin1a signal [1]: significantly increased | percentage of cells with punctate EGFP-Torsin1a signal [2]: significantly increased

O=C(O)CCCc1ccccc1 [PBA, phenylbutyric acid]
percentage of cells with punctate EGFP-Torsin1a signal [1]: ameliorated the burden of cells with punctate pathology | percentage of cells with punctate EGFP-Torsin1a signal [2]: ameliorated the burden of cells with punctate pathology

O=C(/C=C/c1ccccc1)NC(NC(=S)Nc1cccc2cccnc12)C(Cl)(Cl)Cl (centres unmarked) [Salubrinal]
EC50 ([2]; Homo sapiens, Flp-In-T-REx-293, 48 hours, dose response, read-out: EC50 of normalization of delta-E Torsin1a localization): 2.12 µM | effect on delta-E Torsin1a localization (in words) ([2]; dose response): robust dose-dependent normalization | efficacy on delta-E Torsin1a localization ([2]; normalized to vehicle delta-E (max) and WT (min)): 66.4% | toxicity (cell count, cellular morphology; in words) [3]: without modifying steady-state EGFP-Torsin1a levels or significant toxicity | perinatal survival / mortality of homozygous delta-E/delta-E pups ([4]; 3.3 mg/kg subcutaneous daily to pregnant dams from about embryonic day 10 through delivery, vs vehicle): dramatically reduced the mortality; also recorded: improves perinatal survival | mortality of wildtype or heterozygote pups ([4]; 3.3 mg/kg subcutaneous daily to pregnant dams, treatment vs control): no mortality differences | homozygous delta-E Torsin1a pups that survived through the second postnatal day ([4]; in utero exposure, no vehicle-treated homozygous pups survived the first postnatal day): two
